In US8710064B2, “2-aryl-4-quinazolinones and their pharmaceutical compositions” (China Medical University, priority 2011, dated 2014):

What was measured:
U87 glioma cells = assay: immunofluorescent staining, confocal microscopy; assay type: cell-based, human; conditions: 60 nM, 24 hours
Description: 2×10^4 cells were seeded on the PDL-coating 12 mm-glass coverslips in 24-well plate and allowed to attach for 24 hours at 37° C. Culture medium containing MJ-66 (IC50) or DMSO (0.006%) was added, and cells were incubated at 37° C. At indicated time points (0, 12 and 24 hr), cells were fixed in 4% paraformaldehyde (PFA) in PBS for 30 minutes. After permeabilized by 0.2% Triton X-100 in 0.1 M PBS for 10 minutes and 10% methanol containing 0.2% Triton X-100 in 0.1 M PBS for 5 minutes, cells were blocked in 3% bovine serum albumin (BSA, Sigma) for 1 hour. The cells were immunostained for mitotic spindle with mouse monoclonal alpha-tubulin (Sigma-Aldrich), and mitotic center with rabbit polyclonal gamma-tubulin (Genetex), and then stained with appropriated secondary antibodies conjugated with Texas Red or FITC for 1 hr. […] Fluorescence images were detected by confocal laser scanning microscope (FV1000, Olympus).
To observe the morphology of MJ-66-treated glioma cells, C6 or U87 glioma cells were treated with medium or 60 nM MJ-66 for 24 hours and stained with Hoechst 33342 and antibodies against alpha-tubulin conjugated with FITC or antibodies against gamma-tubulin conjugated with FITC in combination with antibodies against alpha-tubulin conjugated with Texas Red were detected by confocal laser scanning microscope. […]

H460 = assay: trypan blue exclusion assay, H460 cells; assay type: cell-based; conditions: NCI-H460, H460 human non-small cell lung cancer
Description: Hep3B (human hepatocellular carcinoma) and H460 (lung non-small carcinoma) cells were grown in monolayer culture in Dulbecco's modified Eagle's medium (DMEM) (Life Technologies, Rockville, Md., USA) containing 5% fetal bovine serum (HyClone, Logan, Utah, USA), 100 U/ml penicillin and 100 μg/ml streptomycin (Gibco BRL, Rockville, Md., USA) and 2 mM glutamine (Merck, Darmstadt, Germany).
Cell viability was also determined by trypan-blue exclusion assay. Cells were seeded in 6-well plates (2×10^4/well) for trypan blue exclusion assay, and incubated for 24 hours at 37° C. Culture medium containing test compound or DMSO (0.006%) was added to each well, and cells were incubated at 37° C. At indicated time points (0, 24, 48, 72 and 96 hr), cells were suspended with 0.05% trypsin-EDTA, and stained with trypan-blue dye (0.4%) (Sigma). The cell viability was evaluated by the percentage of death relative to the total cell, and cell growth curve was determined by number of live cells relative to the total number of cells.
The anti-proliferation effects of Compounds 17-31 on M21, CH27, H460, Hep3B and HSC-3 cells were evaluated by the trypan blue exclusion assay.

rat primary glia cells = assay: MTS cell viability assay, rat primary glia cells; assay type: cell-based; conditions: 0.00625-1 μM
Description: (§1) The human glioma cell lines U87, U251, T98G, U373, and rat glioma cell line RT2 provided by Dr. Michael Hsiao (Genomics Research Center, Academia Sinica, Taiwan) were cultured in Dulbecco's Modified Eagle medium (DMEM) (Caisson) supplemented with 10% fetal bovine serum (FBS) (Sigma-Aldrich), 2 mM L-glutamine (Caisson), 100 U/ml penicillin, and 100 μg/ml streptomycin (Caisson). The rat glioma C6 cell line provided by Dr. Shun-Fen Tzeng (National Cheng Kung University, Taiwan) was cultured in DMEM/F12 (Caisson) supplemented with 10% fetal bovine serum, 2 mM L-glutamine, 100 U/ml penicillin, and 100 μg/ml streptomycin. […] Cell proliferation was determined by MTS (tetrazolium compound, 3-(4,5-dimethylthiazol-2-yl)-5-(3-carboxymethoxyphenyl)-2-(4-sulfophenyl)-2H-tetrazolium) assay (Promega). […] The absorbance of soluble formazan was measured at 490 nm with microplate reader (Molecular device). The cell viability was determined by the percentage of the absorption relative to untreated control. […] To investigate the influence of MJ-66 on normal glia such as human glia cell line SVGP12 and rat primary glia cells, cells were treated with different concentrations of MJ-66 in vitro (0.00625, 0.0125, 0.025, 0.05, 0.1 and 1 μM) for different time durations (0, 6, 12 and 24 hours) and the cell viability was assessed by MTS assay. […]

[1] = tested on: human glia cell line SVGP12; assay: MTS cell viability assay, normal glia cell line SVGP12; assay type: cell-based; conditions: 0.00625-1 μM
Description: as §1

Structure (SMILES): O=c1[nH]c(-c2cccc3ccccc23)nc2ccc(N3CCCC3)cc12 [Compound 23, 6-(Pyrrolidin-1-yl)-2-(naphthalen-1-yl)quinazolin-4-one]
- nuclear morphology of U87 glioma cells (U87 glioma cells): abnormal nuclear phenotype
- IC50 (H460): 75 nM
- cell viability of rat glia cells (rat primary glia cells): inhibited
- cell viability of SVGP12 [1]: inhibited
